For one data set, the system named is Huh7 cells. The experiment in a line: MTT cytotoxicity assay, Huh7. Particulars: Huh7; ZAK-I-57 24 h, ZAK-I-64 and ZAK-I-68 48 h. In kind it is cell-based. The method, then:
(§1) Huh7 and PLC/PRF/5 (CRL-8024™) cells were purchased from Thermo Fisher Scientific and the ATCC, respectively. MIHA was kindly provided by Dr. J. R. Chowdhury, Albert Einstein College of Medicine, New York. The cell lines were cultured in Dulbecco's modified Eagle medium (DMEM, Gibco, MA, USA) supplemented with 10% fetal bovine serum (FBS, BI, MA, USA) and 1× penicillin-streptomycin solution (Solarbio) at 37° C. in a humid, 5% CO2 atmosphere.
(§2) Huh7 and PLC/PRF/5 cells at a density of 5×10^3 cells/well were cultured in 96-well plates and incubated at 37° C. in 5% CO2. Both cell lines were treated with different concentrations of benzoxazinone derivatives (ZAK-I-57, ZAK-I-64, and ZAK-I-68). Both cell lines were incubated with ZAK-I-57 for 24 h and for 48 h with ZAK-I-64 and ZAK-I-68. MTT (3-[4,5-dimethylthiazol-2-yl]-2,5-diphenyltetrazolium bromide) solution was then added to each well and incubated for 3 h in a CO2 atmosphere at 37° C. Insoluble formazan crystals were dissolved by adding 100 μL of dimethyl sulfoxide (DMSO) to each well, followed by orbital agitation for 10 min. A minimum of three biological replicates were analyzed using a plate reader to determine IC50. The same experiment was performed with MIHA hepatocyte cells to evaluate the selectivity cytotoxicity of ZAK-I-57.
(Formazan colour is commonly taken as a measure of viable cells.)

A further data set has as its system ERBB2. In words: Western blot of ERBB2 expression in Huh7 cells. In kind it is cell-based. The procedure:
(§3) The Huh7 cells and tumor tissues were lysed on ice using the lysis buffer. Protein concentration was quantified using Bradford assay (Bio-Rad, Hercules, CA, USA). Equivalent amounts of protein (25-50 μg) were loaded onto 10% sodium dodecyl sulfate-polyacrylamide gel electrophoresis (SDS-PAGE) and transferred to polyvinylidene fluoride (PVDF) membranes. Membranes were blocked with 5% non-fat milk in Tris-buffered saline Tween 20 (TBST) for an hour. The blots were incubated with primary antibodies (EGFR (4267S, Cell signaling technology, MA, USA), c-Myc (5605S, Cell signaling technology, MA, USA), Bax (2772S, Cell signaling technology, MA, USA), Bcl-2 (sc-7382, Santa Cruze, TX, USA), ERBB2 (2165S, Cell signaling technology, MA, USA), and α-tubulin (62204, Invitrogen, MA, USA), 1:1000) at 4° C. overnight. Subsequently, the membranes were washed thrice (15 min each) with TBST solution and incubated for 1 h with secondary horseradish peroxidase-conjugated antibodies (NA934 and NA931, Cytiva, MA, USA, 1:5000). Blots were then detected using an ECL kit and photographed using a ChemiDoc Imaging System (Bio-Rad, MA, USA). The bands were quantified using the ImageJ software (NIH, USA). The intensities of the bands for each protein sample were normalized to those of α-tubulin (internal standard protein). Quantitative data are presented as a fold change of untreated control.

A further data set relates to PLC/PRF/5 cells. In words: MTT cytotoxicity assay, PLC/PRF/5. In kind it is cell-based. Particulars: PLC/PRF/5; ZAK-I-57 24 h, ZAK-I-64 and ZAK-I-68 48 h. The method, then:
as §1, §2

A further data set relates to c-Myc. In words: Western blot of c-Myc expression in Huh7 cells. In kind it is cell-based. The procedure: as §3
(In general: In western blotting, separated proteins are transferred to a membrane and probed.)

The next data set concerns EGFR. The experiment in a line: Western blot of EGFR expression in Huh7 cells. In kind it is cell-based. The method, then: as §3
In a further data set the test system is HCC PDTX mouse model. In words: HCC patient-derived tumor xenograft (PDTX #1) mouse model. In kind it is in vivo, mice. Particulars: ZAK-I-57 15 and 30 mg/kg, sorafenib 30 mg/kg. The procedure:
(§4) Male BALB/c nude mice (6-8 weeks old) were obtained from the Centralized Animal Facilities at the Hong Kong Polytechnic University. All animals were bred and housed under specific pathogen-free conditions, with access to sterile food and water. Environmental conditions were strictly controlled, with temperature maintained at 23±2° C., relative humidity between 30%-70%, and a 12-hour light/dark cycle. Mice were group-housed in accordance with institutional guidelines for recommended stocking density. The animal experiments were conducted according to institutional guidelines, and the experimental procedures were approved by the PolyU Animal Experimentation Ethics Committee (Ref. No. 19-20/57-ABCT-R-STUDENT).
The procedure for the establishment of PDTX #1 was previously described. Tumor cells from PDTX #1 was inoculated subcutaneously on the back of nude mice. When the tumors reached approximately 1,000 mm^3, mice with the first generation of xenografts (P1) were sacrificed, and the xenografts were isolated and expanded for the second generation (P2). When P2 xenografts reached an average volume of 70 mm^3, mice were subjected to ZAK-I-57 and sorafenib treatment. The development of PDTX was approved by the Institutional Review Board of the University of Hong Kong/Hospital Authority Hong Kong West Cluster (UW 17-056) and informed consents were obtained from patients.
as §3
(§5) Tumors were fixed in 4% formalin, embedded in paraffin, and sectioned at […] thickness for IHC staining. Ki-67 primary antibody (ab16667, Abcam, MA, USA) and anti-mouse IgG recombinant secondary antibody (7056S, Cell Signaling Technology, MA, USA) were used for IHC staining. Hemotoxin (Invitrogen, MA, USA) was used to stain nuclei. The number of positively stained cells in Ki-67-stained slides was evaluated using ImageJ software (NIH, MD, USA).
(§6) H&E staining was performed on histological sections of organs (heart, spleen, kidney, liver, and lung) to examine the toxicity of ZAK-I-57 in PLC/PRF/5 tumor-bearing and PDTX model mice. Briefly, the histological slides were deparaffinized using 100% xylene (v/v). The slides were then washed several times with ethanol solutions of various concentrations (70-100%, v/v) and immersed in hematoxylin for 5 min, followed by a quick dip in acidic alcohol. Next, the slides were immersed in Scott's tap water for 3 min and in 1% eosin for 30 s. Finally, the slides were dehydrated using ethanol solutions of various concentrations (70%-100%, v/v) and 100% xylene (v/v) and mounted using a mounting medium.
(In xenograft studies the graft and the host belong to different species.)

Data set [1] has as its system PLC/PRF/5 tumor-bearing mice. In words: PLC/PRF/5 tumor-bearing mouse model. In kind it is in vivo. Particulars: ZAK-I-57 15 and 30 mg/kg, sorafenib 30 mg/kg. The procedure: as §4
PLC/PRF/5 cells (5×10^5) were suspended in 100 μL PBS with Matrigel (1:1 ratio) and injected into the right back of nude mice. Small tumors (<70 mm^3) were formed two weeks after cell inoculation. Mice were then randomized into the vehicle control group, ZAK-I-57 treated groups (15 mg/kg and 30 mg/kg), or sorafenib (30 mg/kg) groups. Mice were administered 200 μL of vehicle water and drugs by oral gavage daily for three weeks. Tumor size was measured twice a week, and tumor volumes were calculated using the formula [(length×width×depth)/2 mm^3] while each mouse was weighed. At the end of the experiment, the mice were sacrificed, and the tumors and organs were collected for further experiments.
as §3, §5, §6

The mark [2] stands for this setting: heart, liver, spleen, lung, kidney.

Take `Cc1ccccc1-c1nc2cc([N+](=O)[O-])ccc2c(=O)o1` [ZAK-I-64, 2-(2-methylphenyl)-7-nitro-4H-3,1-benzoxazin-4-one]: the “cytotoxicity (cell viability)” value in the data set with Huh7 cells and in the data set on PLC/PRF/5 cells was “concentration-dependent increase in cytotoxicity” throughout. The ERBB2 expression entry is reported as “no appreciable effect” in the data set with ERBB2 (Huh7, 48 h treatment) and “significant downregulation” with ERBB2 (Huh7, 72 h treatment). The c-Myc expression result in the data set with c-Myc (Huh7, 48 h treatment) is given as “no appreciable effect”; in the data set with c-Myc (Huh7, 72 h treatment), “significant downregulation”. The EGFR expression result with EGFR (Huh7, 48 h treatment) is reported as “no appreciable effect”; in the data set on EGFR (Huh7, 72 h treatment) it was “significant downregulation”.

For `O=c1oc(-c2ccc(O)cc2)nc2cc([N+](=O)[O-])ccc12` [ZAK-I-68, 2-(4-hydroxyphenyl)-7-nitro-4H-3,1-benzoxazin-4-one], the “cytotoxicity (cell viability)” value with Huh7 cells and in the data set on PLC/PRF/5 cells was “concentration-dependent increase in cytotoxicity” each time. Moreover, the ERBB2 expression entry with ERBB2 (Huh7, 48 h treatment) was “no appreciable effect”; in the data set on ERBB2 (Huh7, 72 h treatment) it was “significant downregulation”. In addition, the c-Myc expression result with c-Myc (Huh7, 48 h treatment) is on record as “no appreciable effect”; in the data set on c-Myc (Huh7, 72 h treatment), “significant downregulation”. The EGFR expression entry in the data set with EGFR (Huh7, 48 h treatment) is listed as “no appreciable effect”; in the data set on EGFR (Huh7, 72 h treatment) it was “significant downregulation”.

With `CNC(=O)c1cc(Oc2ccc(NC(=O)Nc3ccc(Cl)c(C(F)(F)F)c3)cc2)ccn1` [sorafenib, reference compound], the body weight result with HCC PDTX mouse model is “Slight variations”; in data set [1] (oral gavage daily, 20 days), “only slight variation”. Moreover, the “tumor cellularity (H&E staining)” value (with HCC PDTX mouse model (vs vehicle control); in data set [1] (vs vehicle control)) was “marked reduction in tumor cellularity” throughout. The “gross anatomical examination of vital organs” value (with HCC PDTX mouse model (setting [2]); in data set [1] (setting [2])) was “maintained tissue morphology comparable to the vehicle control” in each case. The “histopathology of vital organs (H&E)” value (in the data set on HCC PDTX mouse model (setting [2]); in data set [1] (setting [2])) was “absence of significant pathological changes” throughout.
